The values that follow come from ChEMBL document CHEMBL1201862, “PubChem BioAssay data set” (2004).

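48-hour exposure; five concentrations; linearly interpolated endpoints. GI50 = concentration required for 50% inhibition of growth.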 Active and inactive are the calls of the source. Rule as the data show it: active = GI50 up to about 1.1 µM and inactive = higher. A value given as a limit tells only on which side of the number the result lay.

What all share (assay): growth of human tumour cells (NCI), 48 h
Test [1] relates to SK-MEL-5.
The subject of test [2] is ACHN.
The subject of test [3] is NCI-H23.
Test [4] has as its system A498.
In test [5] the test system is SF-539.
The test system of test [6] is IGROV-1.
Test [7] has as its system MOLT-4.
For test [8], the system named is CCRF-CEM.
In test [9] the test system is RXF 393.
The subject of test [10] is MDA-MB-231.
In test [11] the test system is Hs-578T.
Test [12] relates to A549.
In test [13] the test system is NCI/ADR-RES.
Test [14] deals with SR.
The test system of test [15] is UACC-257.
In test [16] the test system is MDA-N.
In test [17] the test system is K562.
The subject of test [18] is HOP-92.
Test [19] has as its system MCF7.
For test [20], the system named is LXFL 529.

With `O=C(NCCNCCNCCNC(=O)c1cc(-c2ccccc2)nc2ccccc12)c1cc(-c2ccccc2)nc2ccccc12`, the GI50 was 1.52 µM (inactive) in [1]; 2.13 µM (inactive) in test [2]; 3.15 µM (inactive) in test [3]; 3.16 µM (inactive) in test [4]; 2.08 µM (inactive) in [5]; 2.52 µM (inactive) in test [6]. Moreover, the GI50 in test [7] was 1.95 µM (inactive); in test [8], 2.28 µM (inactive); in test [9], 2.02 µM (inactive); in test [10], 2.96 µM (inactive); in [11], 2.25 µM (inactive); in test [12], 5.83 µM (inactive). The GI50 is 13.4 µM (inactive) in [13]; 2.02 µM (inactive) in [14]; 1.72 µM (inactive) in test [15]; 1.6 µM (inactive) in test [16]; 1.94 µM (inactive) in test [17]; 1.92 µM (inactive) in test [18]. Besides, the GI50 in [19] is 2.04 µM (inactive).
Regarding `CCOC(=O)c1sc2[n+](c1C)C(=O)/C(=C/c1ccccc1Cl)S2`, the GI50 in test [1] was 0.421 µM (active); in [2] it was 1.53 µM (inactive); in [3] it was 1.63 µM (inactive); in [4], 6.92 µM (inactive); in test [5] it was 0.472 µM (active); in test [6], 1.84 µM (inactive). For the same compound, the GI50 in [7] was 3.33 µM (inactive); in [8] it was 15.3 µM (inactive); in test [9] it was 15.3 µM (inactive); in test [10] it was 3.06 µM (inactive); in test [11], 0.822 µM (active); in test [12] it was 0.9 µM (active). In addition, the GI50 in [13] was 0.342 µM (active); in test [14], 0.394 µM (active); in test [15], 4.83 µM (inactive); in [16], 0.259 µM (active); in [17] it was 0.505 µM (active); in test [18], 5.9 µM (inactive). Besides, in [19], the GI50 is 3.11 µM (inactive).
Take `CN(C)/C=N\c1nc(=O)n(C2CCC(CO)O2)cc1F` (centres undefined): the GI50 in test [1], in [2], in test [3], in test [7], in test [8] and in test [9] was > 100 µM (inactive) each time. Besides, the GI50 in test [12], in [15], in test [17], in [18] and in test [20] was > 100 µM (inactive) throughout.
As for `COC(=O)/C=C(\S/C(=N\n1cc(C(=O)OC)c(C(=O)OC)c1-c1ccc(C)cc1)c1ccc(C)cc1)C(=O)OC`, the GI50 in [1] is 13.4 µM (inactive); in test [2], 2.34 µM (inactive); in test [3], 5.62 µM (inactive); in test [4], 12.8 µM (inactive); in [5], 17.9 µM (inactive); in [6], 7.85 µM (inactive). Further, the GI50 in test [7] was 4.26 µM (inactive); in test [8], 0.34 µM (active); in test [9] it was 5.47 µM (inactive); in test [10], 5.25 µM (inactive); in [11], 18.4 µM (inactive); in test [12] it was 18.7 µM (inactive). Also, the GI50 in [13] was 6.87 µM (inactive); in [14] it was 1.16 µM (inactive); in [15] it was 4.72 µM (inactive); in test [16], 5.79 µM (inactive); in test [17], 1.43 µM (inactive); in test [18], 2.8 µM (inactive). Further, in test [19], the GI50 is 6.7 µM (inactive).
For the compound `CC(C)(Cl)C(Cl)CC/C(CBr)=C(\Cl)CCl` (centres undefined), the GI50 was 2.31 µM (inactive) in [1]; 14.9 µM (inactive) in [2]; 3.87 µM (inactive) in [3]; 19.4 µM (inactive) in [4]; 4.86 µM (inactive) in test [5]; 2.04 µM (inactive) in test [6]. The GI50 in [7] was 0.491 µM (active); in [8], 0.294 µM (active); in [9], 10.6 µM (inactive); in test [10] it was 2.57 µM (inactive); in test [11], 5.32 µM (inactive); in test [12], 18 µM (inactive). Also, the GI50 was 5.81 µM (inactive) in test [13]; 0.485 µM (active) in [14]; 3.25 µM (inactive) in [15]; 2.21 µM (inactive) in [16]; 0.678 µM (active) in test [17]; 10.4 µM (inactive) in [18]. Also, the GI50 in [19] is 11 µM (inactive).
`CC1(C)OCC2OC(n3cnc4c(N)nc(Cl)nc43)C(OS(C)(=O)=O)C2O1` (centres undefined): the GI50 in test [1], in [2], in test [3], in test [4], in test [5] and in test [6] was > 100 µM (inactive) each time. In addition, the GI50 in test [7] is 48.2 µM (inactive); in test [8], > 100 µM (inactive); in test [9], > 100 µM (inactive); in test [10], > 100 µM (inactive); in test [11], > 100 µM (inactive); in test [12] it was > 100 µM (inactive). The GI50 in test [13] is > 100 µM (inactive); in test [14], > 100 µM (inactive); in test [15], > 100 µM (inactive); in test [16], > 100 µM (inactive); in test [17] it was > 100 µM (inactive); in test [18], 45.3 µM (inactive). In addition, the GI50 in test [19] is > 100 µM (inactive).
For the compound `O=c1c2cc([N+](=O)[O-])ccc2oc2nc3n(c(=O)c12)CCCS3`, the GI50 in test [1], in test [2], in test [3], in test [4], in test [5] and in test [6] was > 100 µM (inactive) each time. For the same compound, the GI50 in test [7] is > 100 µM (inactive); in test [8] it was > 100 µM (inactive); in test [9] it was > 100 µM (inactive); in test [10] it was > 100 µM (inactive); in [11], 56.1 µM (inactive); in [12] it was > 100 µM (inactive). Moreover, the GI50 in [13], in test [14], in [15], in test [16], in test [17] and in [18] was > 100 µM (inactive) in each case. The GI50 in test [19] was > 100 µM (inactive).
In the case of `COC(=O)CCC(NC(=O)OC(C)(C)C)C(=O)NC(Cc1ccc(NC(=O)CCCC(C)=O)cc1)C(=O)NC(CCC(=O)OC)C(=O)OC` (centres undefined), the GI50 in test [1], in [2], in test [3], in test [4], in [5] and in [6] was > 100 µM (inactive) in each case. Moreover, the GI50 in test [7], in [8], in [9], in test [10], in [11] and in test [12] was > 100 µM (inactive) throughout. Moreover, the GI50 in [13], in test [14], in test [15], in [16], in test [17] and in test [18] was > 100 µM (inactive) each time. Also, the GI50 in test [19] is > 100 µM (inactive).
For `Nc1nnnn1NC(=O)NCCCl`, the GI50 in [1], in [2], in test [3], in [4], in test [5] and in test [6] was > 10 µM (inactive) in each case. In addition, the GI50 in test [7], in test [8], in test [9], in test [10], in test [11] and in test [12] was > 10 µM (inactive) each time. The GI50 in test [13], in test [14], in [15], in test [16], in test [17] and in test [18] was > 10 µM (inactive) each time. Further, in test [19], the GI50 was > 10 µM (inactive).
For the compound `Nc1nc(Cl)c(CO)c(NCC2(CO)CC(CCc3ccccc3)C2)n1` (centres undefined), the GI50 in [1] was 17.3 µM (inactive); in test [2] it was 24.4 µM (inactive); in test [3], 0.0951 µM (active); in [4] it was 22.2 µM (inactive); in test [5], 21.9 µM (inactive); in test [6], > 10 µM (inactive). For the same compound, the GI50 was 2.1 µM (inactive) in test [7]; 16.5 µM (inactive) in test [8]; 20.9 µM (inactive) in [9]; 12.5 µM (inactive) in [10]; > 10 µM (inactive) in test [11]; 18.6 µM (inactive) in test [12]. The GI50 is 11.5 µM (inactive) in test [13]; 4.82 µM (inactive) in [14]; 11.4 µM (inactive) in test [15]; > 100 µM (inactive) in [16]; 1.37 µM (inactive) in [17]; 24.3 µM (inactive) in [18]. Also, in test [19], the GI50 is 14.3 µM (inactive).
In the case of `O=[N+]([O-])c1ccc(C2=Nc3ccccc3[S+]([O-])C(c3ccccc3)C2)cc1` (centres undefined), the GI50 was > 10 µM (inactive) in [1]; 21.4 µM (inactive) in test [2]; 18.2 µM (inactive) in test [3]; 20.2 µM (inactive) in test [5]; 15.3 µM (inactive) in test [6]; 16.6 µM (inactive) in test [7]. Also, the GI50 was 15.1 µM (inactive) in [8]; 14.9 µM (inactive) in [9]; 27.9 µM (inactive) in test [12]; 22.1 µM (inactive) in [15]; 10.9 µM (inactive) in test [17]; 13.5 µM (inactive) in test [20].
